Experimental data from publication PMC9043818, “Coordination complexes of zinc and manganese based on pyridine-2,5-dicarboxylic acid N-oxide: DFT studies and antiproliferative activities consideration” (RSC Advances, 2021).
Like-named read-outs stand apart in the source and are kept apart here.

Experiments:
[1] = tested on: human breast cancer cells MCF-7; experiment: MTT antiproliferative assay, MCF-7; type: cell-based; conditions: mean ± SD
Procedure: (§1) Human breast cancer cells MDA-MD-231 (ATCC HTB-26), human breast cancer cells MCF-7 (ATCC HTB-22), human cervix epithelial carcinoma HeLa (ATCC CCL-2), human colon cancer cell line HT-29 (ATCC HTB-38), mouse neuroblastoma cell line Neuro-2a (ATCC CCL-131) and mouse fibroblast L-929 cell line (ATCC CCL-1) were obtained from the American Type Culture Collection (ATCC; Manassas, VA, USA) and cultured at 37 °C in a humidified atmosphere of 5% CO2 in air. HeLa cells were cultured in Dulbecco's Modified Eagle's Medium (DMEM) with 0.1 mM nonessential amino acids, 2 mM L-glutamine, 1.0 mM sodium pyruvate and 5% fetal bovine serum, at 37 °C in an atmosphere of 5% CO2. Cells were plated in 96-well sterile plates at a density of 1 × 10^4 cells per well in 100 μL of medium and incubated for 24 h. Also MDA-MD-231, HT-29, MCF-7 and Neuro-2a were cultured in DMEM containing 10% fetal bovine serum, 100 units per ml of penicillin and 100 μg ml^−1 of streptomycin. L-929 cells were cultured in RPMI-1640 medium containing 10% fetal bovine serum, 100 units per ml of penicillin and 100 μg ml^−1 of streptomycin.
(§2) Complexes 1–3 ([Mn2(pydco)2(bpy)2(H2O)2]·2H2O (1), [Zn(bpy)(Hpydco)2] (2) and [Zn(bpy)Cl(Hpydco)]·2H2O (3)) were screened for antiproliferative activity against human breast cancer cells (MDA-MD-231), human cervix epithelial carcinoma (HeLa), human colon cancer cell line (HT-29), human breast cancer cells (MCF-7), mouse neuroblastoma cell line (Neuro-2a) and mouse fibroblast L-929 cell line using cisplatin as a comparative standard. Cell viability was evaluated by a colorimetric method based on the tetrazolium salt MTT ([3-(4,5-dimethylthiazol-2-yl)-2,5-diphenyltetrazolium bromide]), which is reduced by living cells to yield purple formazan crystals. Cells were seeded in 96-well plates at a density of 2–5 × 10^4 cells of MDA-MD-231, MCF-7, HeLa, HT-29, Neuro-2a and L-929 per well in 200 μL of culture medium and left to incubate overnight for optimal adherence. After careful removal of the medium, 200 μL of a dilution series of the complexes in fresh medium were added and incubation was performed at 37 °C/5% CO2 for 72 h. Complexes 1–3 were first solubilized in DMSO, diluted in medium and added to the cells in final concentrations between 20 nM and 200 μM. […] Cisplatin was first solubilized in saline and then added at the same concentrations used for the other complexes. At the end of the incubation period, the complexes were removed, and the cells were incubated with 200 μL of MTT solution (500 μg ml^−1). After 3–4 h at 37 °C/5% CO2, the medium was removed, and the purple formazan crystals were dissolved in 200 μL of DMSO by shaking. The cell viability was evaluated by measurement of the absorbance at 570 nm by using a STAT FAX-2100 microplate reader (Awareness Technology, Palm City, FL, USA). The cell viability was calculated by dividing the absorbance of each well by that of the control wells (cells treated with medium containing 1% DMSO). Each experiment was repeated at least three times and each point was determined in at least three replicates.
(§3) IC50 values are expressed as mean ± standard deviation (SD) from at least three independent experiments. Statistical tests including One way ANOVA, Tukey multiple comparison or unpaired Student's t-tests were performed using SPSS, ver.17 software. A p value of less than 0.05 was considered as significant.

[2] = tested on: human breast cancer cells MDA-MD-231; experiment: MTT antiproliferative assay, MDA-MD-231; type: cell-based; conditions: 72 h incubation, mean ± SD
Procedure: as §1, §2, §3

[3] = tested on: human colon cancer cell line HT-29; experiment: MTT antiproliferative assay, HT-29; type: cell-based; conditions: mean ± SD
Procedure: as §1, §2, §3

[4] = tested on: human cervix epithelial carcinoma HeLa; experiment: MTT antiproliferative assay, HeLa; type: cell-based; conditions: 72 h incubation, mean ± SD
Procedure: as §1, §2, §3

[5] = tested on: mouse neuroblastoma cell line Neuro-2a; experiment: MTT antiproliferative assay, Neuro-2a; type: cell-based; conditions: 72 h incubation, mean ± SD
Procedure: as §1, §2, §3

[6] = tested on: mouse fibroblast L-929 cell line; experiment: MTT assay, normal cell line L929; type: cell-based; conditions: IC50 > 100 μM considered inactive, read-out: IC50 ± SD L929
Procedure: as §1, §2, §3

[7] = tested on: MDA-MB-231 cancer cell line; experiment: Apoptosis assay by flow cytometry (Annexin V-FITC/PI); type: cell-based, human; conditions: for induction of apoptosis (flow cytometry): MDA-MB-231, 24 h; for induction of apoptosis (flow cytometry) / Apoptotic cells (%) / Late apoptotic/necrotic cells (%) / Necrotic cells (%) / Vital cells (%): concentration close to the IC50; for population of apoptotic cell, fold higher than cisplatin: at the same concentration as cisplatin; for Apoptotic cells (%) / Late apoptotic/necrotic cells (%) / Necrotic cells (%) / Vital cells (%): MDA-MD-231, 24 h
Procedure: In order to study in which way 1–3 produced the cellular death (necrosis or apoptosis) studies of flow cytometry were performed on the complexes and cisplatin as a reference. Four areas in the diagrams stand for necrotic cells (Q1, low Annexin V-FITC and high PI signal, left square on the top), late apoptosis or necrosis cells (Q2, high Annexin V-FITC and high PI signal, right square on the top), live cells (Q3, low Annexin V-FITC and low PI signal, left square at the bottom), apoptosis cells (Q4, high Annexin V-FITC and low PI signal, right square at the bottom), respectively.

[8] = tested on: MDA-MB-231 breast cancer cells; experiment: TUNEL assay (dUTP-FITC, confocal microscopy); type: cell-based, human; conditions: MDA-MB-231, 24 h, vs 0.3% DMSO controls
Procedure: Analysis of apoptosis for 2 and 3 by cytometry using TUNEL assay. Also, apoptosis was detected using an in situ cell death detection kit (Boehringer Mannheim Corp., Indianapolis, IN) as described by Narla et al. and Zhu et al. (Narla et al., 2000;[42] Zhu et al., 1998 (ref. [43])). Cells were incubated with 1–3 in 0.3% DMSO or 1 : […], permeabilized and incubated with the reaction mixture containing TdT- and FITC-conjugated dUTP, and counterstained with propidium iodide. Cells were transferred to slides and viewed with a confocal laser scanning microscope (Bio-Rad MRC 1024) mounted on a Nikon Eclipse E800 series upright microscope as reported previously (Narla et al., 2000;[42] Zhu et al., 1998 (ref. [43])).

[9] = tested on: MDA-MD-231, MCF-7, HeLa, HT-29, Neuro-2a and L-929 cell lines; experiment: MTT assay, range over all cell lines; type: cell-based; conditions: 72 h, all six cell lines, read-out: IC50 values, span over all cell lines
Procedure: Human breast cancer cells MDA-MD-231 (ATCC HTB-26), human breast cancer cells MCF-7 (ATCC HTB-22), human cervix epithelial carcinoma HeLa (ATCC CCL-2), human colon cancer cell line HT-29 (ATCC HTB-38), mouse neuroblastoma cell line Neuro-2a (ATCC CCL-131) and mouse fibroblast L-929 cell line (ATCC CCL-1) were obtained from the American Type Culture Collection (ATCC; Manassas, VA, USA) and cultured at 37 °C in a humidified atmosphere of 5% CO2 in air. HeLa cells were cultured in Dulbecco's Modified Eagle's Medium (DMEM) with 0.1 mM nonessential amino acids, 2 mM L-glutamine, 1.0 mM sodium pyruvate and 5% fetal bovine serum, at 37 °C in an atmosphere of 5% CO2. […]
Complexes 1–3 ([Mn2(pydco)2(bpy)2(H2O)2]·2H2O (1), [Zn(bpy)(Hpydco)2] (2) and [Zn(bpy)Cl(Hpydco)]·2H2O (3)) were screened for antiproliferative activity against human breast cancer cells (MDA-MD-231), human cervix epithelial carcinoma (HeLa), human colon cancer cell line (HT-29), human breast cancer cells (MCF-7), mouse neuroblastoma cell line (Neuro-2a) and mouse fibroblast L-929 cell line using cisplatin as a comparative standard. Cell viability was evaluated by a colorimetric method based on the tetrazolium salt MTT ([3-(4,5-dimethylthiazol-2-yl)-2,5-diphenyltetrazolium bromide]), which is reduced by living cells to yield purple formazan crystals. […]

[10] = experiment for 3 (Table 5), 3 and cisplatin at the same concentration, MDA-MB-231
[11] = experiment for 2 (Table 4), 2 and cisplatin at the same concentration
[12] = Homo sapiens, MCF7, 72 h incubation
[13] = Homo sapiens, HT-29, 72 h incubation
[14] = Mus musculus, L929, 72 h incubation

Row | Compound | IC50 ([1]; 72 h incubation) [µM] | IC50 [2] [µM] | IC50 ([3]; 72 h incubation) [µM] | IC50 [4] [µM] | IC50 [5] [µM] | IC50 ([6]; 72 h incubation) [µM] | induction of apoptosis (flow cytometry) [7] | population of apoptotic cell, fold higher than cisplatin ([7]; MDA-MB-231) [fold] | population of apoptotic cell (apoptotic + late apoptotic) [7, 10] [%] | Apoptotic cells (%) ([7]; experiment for 3) | Late apoptotic/necrotic cells (%) ([7]; experiment for 3) | Necrotic cells (%) ([7]; experiment for 3) | Vital cells (%) ([7]; experiment for 3) | induction of apoptosis (TUNEL, apoptotic nuclei) [8] | IC50 [9] [µM] | population of apoptotic cell (apoptotic + late apoptotic) [7, 11] [%] | Apoptotic cells (%) ([7]; experiment for 2) | Late apoptotic/necrotic cells (%) ([7]; experiment for 2) | Necrotic cells (%) ([7]; experiment for 2) | Vital cells (%) ([7]; experiment for 2) | further results
1 | [Zn(bpy)Cl(Hpydco)]·2H2O [Complex 3] | 17.9 ± 2.66 | 9.18 ± 2.25 | 14.6 ± 3.55 | 37.6 ± 4.61 | 87.7 ± 6.93 | > 100 | could induce apoptosis | ~1.8 | 63.3 | 4.30 | 59.00 | 4.70 | 32.00 | induce apoptosis | 5.94 to 100 | – | – | – | – | – | –
2 | [Zn(bpy)(Hpydco)2] [Complex 2] | 15.6 ± 3.24 | 5.94 ± 1.98 | 17.3 ± 2.57 | 41.2 ± 5.07 | 81.2 ± 9.28 | > 100 | could induce apoptosis | ~1.2 | – | – | – | – | – | induce apoptosis | 5.94 to 100 | 79.45 | 43.91 | 35.54 | 0.82 | 19.73 | –
3 | O=C(O)c1ccc(C(=O)O)[n+]([O-])c1 [Complex H2pydco, pyridine-2,5-dicarboxylic acid N-oxide] | – | – | – | – | – | – | – | – | – | – | – | – | – | – | – | – | – | – | – | – | IC50 [1, 12]: 57.9 ± 5.33 µM; IC50 ([2]; Homo sapiens): 45.7 ± 4.75 µM; IC50 [3, 13]: 58.9 ± 5.01 µM; IC50 ([4]; Homo sapiens, HeLa): 67.1 ± 5.45 µM; IC50 ([5]; mouse/rat NG108-15, N2a): > 100 µM; IC50 [6, 14]: > 100 µM
4 | c1ccc(-c2ccccn2)nc1 [bpy, 2,2′-bipyridine, reference compound] | – | – | – | – | – | – | – | – | – | – | – | – | – | – | – | – | – | – | – | – | IC50 [1, 12]: 51.3 ± 4.78 µM; IC50 ([2]; Homo sapiens): 24.9 ± 1.98 µM; IC50 [3, 13]: 67.8 ± 5.54 µM; IC50 ([4]; Homo sapiens, HeLa): 46.5 ± 4.03 µM; IC50 ([5]; mouse/rat NG108-15, N2a): 97.3 ± 8.7 µM; IC50 [6, 14]: > 100 µM
5 | N.N.[Cl][Pt][Cl] [Cisplatin, cisplatin, reference compound] | 5.94 ± 1.47 | 24.7 ± 4.71 | 19.3 ± 3.46 | 0.45 ± 0.13 | 103 ± 9.8 | 0.7 ± 0.2 | – | – | 35.8 | 15.80 | 20.00 | 3.20 | 61.00 | – | – | 65.28 | 34.65 | 30.63 | 0.98 | 33.74 | –
6 | [Mn2(pydco)2(bpy)2(H2O)2]·2H2O [Complex 1] | 56.6 ± 7.78 | 28.9 ± 2.47 | 57.9 ± 4.71 | 39.2 ± 2.98 | 79.5 ± 8.44 | > 100 | – | – | – | – | – | – | – | – | – | – | – | – | – | – | –
